molecular target: T1, mPTPB (Mycobacterium tuberculosis protein tyrosine phosphatase B) (Mycobacterium tuberculosis, UniProt I6WXK4); assay: biochemical; design: mPTPB phosphatase inhibition, pNPP substrate, absorbance at 405 nm; settings: read-out: 50 uM inhibition rate (%)
T1 construct: gene ptpB
T1 sequence (I6WXK4 whole entry, looked up): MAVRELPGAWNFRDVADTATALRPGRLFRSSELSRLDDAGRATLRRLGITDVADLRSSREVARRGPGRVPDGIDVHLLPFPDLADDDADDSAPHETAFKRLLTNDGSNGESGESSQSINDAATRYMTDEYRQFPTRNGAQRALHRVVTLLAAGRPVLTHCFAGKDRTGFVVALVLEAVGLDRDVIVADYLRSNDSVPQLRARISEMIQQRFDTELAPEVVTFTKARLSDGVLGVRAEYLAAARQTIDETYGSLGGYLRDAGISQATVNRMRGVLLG

Going from `CC(C)[C@H]1CC[C@@]2(C)CC[C@]3(CO)CC4=C(C(=O)O)CC[C@H]4[C@]4(C)C[C@@H]4[C@H]3[C@H]12` [asperterpenoid A] to `CC(C)C1CCC2(C)CCC3(C)CC4=C(C(=O)O)CCC4C4(C)CC4C3C12` (stereo not shown) [compound 1, asperterpenoid D], the inhibition at 50 µM falls from 98.2% to 52.8%.

First: CC(C)[C@H]1CC[C@@]2(C)CC[C@]3(C(=O)O)CC4=C(C(=O)O)CC[C@H]4[C@]4(C)C[C@@H]4[C@H]3[C@H]12 [asperterpenoid B]
Second: CC1=C2C[C@@]3(C)CC[C@]4(C)CC[C@H](C(C)C)[C@H]4[C@@H]3[C@H]3C[C@@]3(C)[C@@H]2CC1 [preasperterpenoid A]
The inhibition at 50 µM of the first is higher: 98.9% for the first, 31.1% for the second.

Compared with `CC(C)[C@H]1C[C@@H](O)[C@@]2(C)CC[C@]3(CO)CC4=C(C(=O)O)CC[C@H]4[C@]4(C)C[C@@H]4[C@H]3[C@H]12` [asperterpenoid C], `CC(C)C1CCC2(C)CCC3(CO)CC4=C(CO)CCC4C4(C)CC4C3C12` (stereo not shown) [compound 3, asperterpenoid F] is higher in inhibition at 50 µM: 45.1% for the first, 48% for the second.

For `CC(C)C1CCC2(C)CCC3(C)CC4=C(CO)CCC4C4(C)CC4C3C12` (stereo not shown) [compound 2, asperterpenoid E], the inhibition at 50 µM was 46.8%.

— publication PMC8717867, “The Oxidation Cascade of a Rare Multifunctional P450 Enzyme Involved in Asperterpenoid A Biosynthesis” (Frontiers in Chemistry, 2021)
